Data taken from patent EP0430029A2, “Pyridin-2,4- and 2,5-dicarboxylic acid diamides, process for their preparation and their use” (HOECHST AKTIENGESELLSCHAFT, priority 1989, dated 1991).

Tested on: durch CCl₄ induzierte Leberfibrose in Ratten
Experiment: CCl₄-induced liver fibrosis in rats, 8-week treatment (liver hydroxyproline, serum procollagen III peptide, serum bilirubin)
Format: in vivo
Settings: 8 weeks
Source text: Zum Nachweis der effektiven Hemmung der Prolin- und Lysinhydroxylase durch die erfindungsgemäßen Verbindungen wurden die Hydroxyprolin-Konzentrationen in der Leber und die Prokollagen-III-Peptid-Konzentrationen im Serum von • a) unbehandelten Ratten (Kontrolle) • b) Ratten, denen Tetrachlorkohlenstoff verabreicht wurde (CCl₄-Kontrolle) • c) Ratten, denen zunächst CCl₄ und anschließend eine erfindungsgemäße Verbindung verabreicht wurde gemessen (diese Testmethode wird beschrieben von Rouiller, C., experimental toxic injury of the liver; in The Liver, C. Rouiller, Vol. 2, S. 335-476, New York, Academic Press, 1964).
Die Wirkstärke der erfindungsgemäßen Verbindungen wurde als prozentuale Hemmung der Leber-Hydroxyprolin- und Prokollagen-III-Peptidsynthese nach oraler Gabe im Vergleich zu Kontrolltieren, denen nur Tetrachlorkohlenstoff verabreicht wurde (CCl₄-Kontrolle), bestimmt. Die Ergebnisse sind in Tabelle 1 aufgeführt. Tabelle 1

CC(=O)NNC(=O)c1ccnc(C(=O)NNC(C)=O)c1 [Example 1, Pyridin-2,4-dicarbonsäuredi-(methylcarbonylhydrazid)]
Bilirubin (Bilirubin in Serum (total), rats given CCl₄ then compound, daily oral dose 50 mg/kg): 3,0 µM
Hyp (Hydroxyprolin Gehalt in der Leber, rats given CCl₄ then compound, daily oral dose 50 mg/kg): 0,181 µg/ml
PIIIP (Prokollagen III N-peptid im Serum, rats given CCl₄ then compound, daily oral dose 50 mg/kg): 29 ng/mL
Hyp Zunahme (absolut) gegen Kontrolle (liver hydroxyproline, absolute increase versus untreated control, 50 mg/kg oral daily): 0,125 µg/ml
Hyp prozentuale Abnahme gegen CCl₄-Behandlung (liver hydroxyproline, 50 mg/kg oral daily): 27%
Mittelwert: Gesamtgehalt an Bilirubin, PIIIP und Hyp, % Abweichung (mean of the percent decreases of bilirubin, PIIIP and Hyp versus CCl₄ treatment, 50 mg/kg oral daily): (33 ± 13 %)
PIIIP Zunahme (absolut) gegen Kontrolle (serum procollagen III N-peptide, absolute increase versus untreated control, 50 mg/kg oral daily): 18 ng/mL
PIIIP prozentuale Abnahme gegen CCl₄-Behandlung (serum procollagen III N-peptide, 50 mg/kg oral daily): 14%
Bilirubin Zunahme (absolut) gegen Kontrolle (serum total bilirubin, absolute increase versus untreated control, 50 mg/kg oral daily): 1,1 µM
Bilirubin prozentuale Abnahme gegen CCl₄-Behandlung (serum total bilirubin, 50 mg/kg oral daily): 58%
